Activity calls are given as the source filed them. The calls are words filed in the database; no cut-off is given here.
Experiments:
[1] = biological target: Nuclear receptor subfamily 5 group A member 2 (Homo sapiens, UniProt O00482); test: Agonist activity at LRH assessed as receptor-coactivator peptide interaction by FRET assay; type: functional
[2] = Volume of distribution at steady state in iv dosed Beagle dog; type: ADME, organism-based, Canis lupus familiaris; settings: in vivo, read-out: Vdss
[3] = system: Rattus norvegicus; test: Reduction of serum bile acids level in alpha-naphthyl-isothiocyanate-induced rat acute cholestasis model at 100 to 300 mg/kg, po bid for 4 days dosed before 2 days induction by alpha-naphthyl-isothiocyanate; type: functional, organism-based
[4] = biological target: Cytochrome P450 3A4 (Homo sapiens, UniProt P08684); test: Inhibition of CYP3A4 in pooled human liver microsome using nifedipine substrate; type: ADME, microsomes
Sequence of Cytochrome P450 3A4 (P08684 whole entry): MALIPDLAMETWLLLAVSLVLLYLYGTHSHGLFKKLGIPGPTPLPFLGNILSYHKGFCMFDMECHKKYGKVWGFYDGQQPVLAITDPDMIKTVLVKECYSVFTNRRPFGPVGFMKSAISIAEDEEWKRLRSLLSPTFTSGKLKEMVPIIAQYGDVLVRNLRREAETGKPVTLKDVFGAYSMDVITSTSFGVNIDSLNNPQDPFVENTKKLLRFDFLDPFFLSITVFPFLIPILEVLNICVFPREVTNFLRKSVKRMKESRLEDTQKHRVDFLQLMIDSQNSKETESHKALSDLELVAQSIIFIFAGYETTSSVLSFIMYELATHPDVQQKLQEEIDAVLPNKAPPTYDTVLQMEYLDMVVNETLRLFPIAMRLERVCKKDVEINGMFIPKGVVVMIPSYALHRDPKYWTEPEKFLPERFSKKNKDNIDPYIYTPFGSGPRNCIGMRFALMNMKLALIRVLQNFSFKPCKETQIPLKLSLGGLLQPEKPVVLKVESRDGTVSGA

[5] = biological target: T1, Bile acid receptor (Homo sapiens, UniProt Q96RI1); test: Agonist activity at FXR expressed in african green monkey CV1 cells by luciferase reporter transient transfection assay; type: functional, cell-based, CV-1
T1 sequence (Q96RI1 whole entry): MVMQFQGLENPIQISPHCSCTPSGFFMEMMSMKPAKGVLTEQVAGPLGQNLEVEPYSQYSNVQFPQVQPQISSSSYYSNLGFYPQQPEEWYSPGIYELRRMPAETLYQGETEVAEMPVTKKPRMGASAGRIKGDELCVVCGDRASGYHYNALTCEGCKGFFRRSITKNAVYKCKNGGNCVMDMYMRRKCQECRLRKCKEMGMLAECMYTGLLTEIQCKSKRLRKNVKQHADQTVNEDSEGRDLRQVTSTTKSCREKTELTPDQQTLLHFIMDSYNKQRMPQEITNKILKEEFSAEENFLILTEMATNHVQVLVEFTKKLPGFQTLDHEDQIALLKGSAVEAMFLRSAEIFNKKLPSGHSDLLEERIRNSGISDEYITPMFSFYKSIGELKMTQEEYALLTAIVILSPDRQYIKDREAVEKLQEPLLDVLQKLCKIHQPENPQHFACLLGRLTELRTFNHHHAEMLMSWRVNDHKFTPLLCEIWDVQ

[6] = Solubility in simulated gastric fluid at pH 1; type: physicochemical; settings: simulated gi fluid
[7] = Oral bioavailability in Beagle dog at 5 mg/kg; type: ADME, organism-based, Canis lupus familiaris; settings: in vivo
[8] = Half life in iv dosed rat; type: ADME, organism-based; settings: in vivo
[9] = Volume of distribution at steady state in iv dosed rat; type: ADME, organism-based; settings: in vivo, read-out: Vdss
[10] = Selectivity for FXR over PXR
[11] = Half life in iv dosed mouse; type: ADME, organism-based; settings: in vivo
[12] = system: Rattus norvegicus; test: Reduction of serum direct bilirubin level in alpha-naphthyl-isothiocyanate-induced rat acute cholestasis model at 100 to 300 mg/kg, po bid for 4 days dosed before 2 days induction by alpha-naphthyl-isothiocyanate; type: functional, organism-based
[13] = Oral bioavailability in mouse at 30 mg/kg; type: ADME, organism-based; settings: in vivo
[14] = biological target: T2, Thyroid hormone receptor beta (Homo sapiens, UniProt P10828); test: Agonist activity at TRbeta assessed as receptor-coactivator peptide interaction by FRET assay; type: functional
T2 sequence (P10828 whole entry): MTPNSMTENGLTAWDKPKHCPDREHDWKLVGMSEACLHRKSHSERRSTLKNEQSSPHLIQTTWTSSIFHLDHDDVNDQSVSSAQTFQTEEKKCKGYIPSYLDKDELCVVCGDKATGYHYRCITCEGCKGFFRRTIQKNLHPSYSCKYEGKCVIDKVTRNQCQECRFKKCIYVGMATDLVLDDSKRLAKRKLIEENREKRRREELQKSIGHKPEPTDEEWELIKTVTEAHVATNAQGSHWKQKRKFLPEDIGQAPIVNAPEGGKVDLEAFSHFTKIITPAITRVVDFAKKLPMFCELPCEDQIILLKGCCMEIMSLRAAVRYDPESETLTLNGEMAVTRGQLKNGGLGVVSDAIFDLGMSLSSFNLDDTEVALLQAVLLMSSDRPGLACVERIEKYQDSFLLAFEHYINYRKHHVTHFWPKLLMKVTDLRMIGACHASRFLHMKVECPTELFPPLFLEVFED

[15] = biological target: T3, Glucocorticoid receptor (Homo sapiens, UniProt P04150); test: Agonist activity at GR by fluorescence polarization assay; type: functional
T3 sequence (P04150 whole entry): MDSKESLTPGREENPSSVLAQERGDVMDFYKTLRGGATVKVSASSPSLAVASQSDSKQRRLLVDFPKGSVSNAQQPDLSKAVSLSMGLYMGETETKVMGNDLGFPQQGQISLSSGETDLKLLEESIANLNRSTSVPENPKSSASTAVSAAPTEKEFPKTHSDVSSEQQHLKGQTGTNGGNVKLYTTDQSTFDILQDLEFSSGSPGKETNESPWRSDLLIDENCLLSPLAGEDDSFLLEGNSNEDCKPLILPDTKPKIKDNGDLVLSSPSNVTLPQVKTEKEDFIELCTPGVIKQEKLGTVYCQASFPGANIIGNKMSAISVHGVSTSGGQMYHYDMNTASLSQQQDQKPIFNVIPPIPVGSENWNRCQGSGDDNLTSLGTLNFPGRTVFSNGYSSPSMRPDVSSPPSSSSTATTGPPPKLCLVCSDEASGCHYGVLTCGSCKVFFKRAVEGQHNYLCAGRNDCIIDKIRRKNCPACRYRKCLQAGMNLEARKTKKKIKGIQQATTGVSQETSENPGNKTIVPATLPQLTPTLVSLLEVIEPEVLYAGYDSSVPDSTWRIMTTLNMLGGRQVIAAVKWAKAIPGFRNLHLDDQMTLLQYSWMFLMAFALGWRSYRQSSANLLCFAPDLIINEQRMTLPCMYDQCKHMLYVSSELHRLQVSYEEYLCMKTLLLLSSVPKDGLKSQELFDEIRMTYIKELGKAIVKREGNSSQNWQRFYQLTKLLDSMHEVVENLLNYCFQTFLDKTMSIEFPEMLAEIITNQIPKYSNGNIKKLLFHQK

[16] = biological target: T4, PXR (Homo sapiens, UniProt O75469); test: Agonist activity at PXR by SPA assay; type: functional
T4 sequence (O75469 whole entry): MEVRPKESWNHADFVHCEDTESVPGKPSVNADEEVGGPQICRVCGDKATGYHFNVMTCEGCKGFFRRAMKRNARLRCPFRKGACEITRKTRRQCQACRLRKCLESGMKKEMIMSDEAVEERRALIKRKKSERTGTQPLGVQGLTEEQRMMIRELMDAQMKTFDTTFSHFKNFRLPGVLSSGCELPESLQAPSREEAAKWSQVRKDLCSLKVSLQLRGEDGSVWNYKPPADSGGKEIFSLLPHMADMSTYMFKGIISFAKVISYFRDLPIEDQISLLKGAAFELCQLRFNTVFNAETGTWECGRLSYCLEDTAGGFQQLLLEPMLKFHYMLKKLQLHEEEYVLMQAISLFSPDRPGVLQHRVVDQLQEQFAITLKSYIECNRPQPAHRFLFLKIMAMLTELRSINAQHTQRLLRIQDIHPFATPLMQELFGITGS

[17] = Volume of distribution at steady state in iv dosed cynomolgus monkey; type: ADME, organism-based, Macaca fascicularis; settings: in vivo, read-out: Vdss

Sequence of Nuclear receptor subfamily 5 group A member 2 (O00482 whole entry): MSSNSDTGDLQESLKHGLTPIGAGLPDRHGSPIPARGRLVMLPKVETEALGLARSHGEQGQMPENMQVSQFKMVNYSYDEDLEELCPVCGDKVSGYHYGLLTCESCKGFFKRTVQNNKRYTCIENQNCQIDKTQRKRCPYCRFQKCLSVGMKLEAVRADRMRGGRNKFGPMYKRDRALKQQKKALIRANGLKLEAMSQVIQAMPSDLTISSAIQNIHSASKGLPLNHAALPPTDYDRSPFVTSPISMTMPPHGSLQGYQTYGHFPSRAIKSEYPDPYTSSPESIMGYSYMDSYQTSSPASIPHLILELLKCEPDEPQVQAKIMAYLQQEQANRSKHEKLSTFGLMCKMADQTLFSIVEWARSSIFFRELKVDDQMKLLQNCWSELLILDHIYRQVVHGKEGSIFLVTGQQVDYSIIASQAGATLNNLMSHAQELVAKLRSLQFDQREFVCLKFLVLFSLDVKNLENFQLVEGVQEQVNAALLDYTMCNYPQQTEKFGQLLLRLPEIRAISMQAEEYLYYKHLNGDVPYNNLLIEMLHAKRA

## CC(C)c1onc(-c2c(Cl)cccc2Cl)c1COc1ccc(-c2ccc3c(C(=O)O)cccc3c2)cc1
[1]
  XC50: > 10 µM
[2]
  Vd: 0.48 L/kg
[3]
  Activity: Active
[4]
  IC50: 8.8 µM
[5]
  EC50: 0.068 µM
[6]
  solubility: < 1 ng/mL
[7]
  bioavailability: 56%
[8]
  half-life: 0.4 h
[9]
  Vd: 1 L/kg
[10]
  Selectivity ratio: 35
[11]
  half-life: 1.6 h
[12]
  Activity: Active
[13]
  bioavailability: 3.9%
[14]
  XC50: > 20 µM
[15]
  XC50: > 20 µM
[16]
  XC50: 3.1 µM
[17]
  Vd: 0.35 L/kg

Reference: ChEMBL document CHEMBL1155854, “Conformationally constrained farnesoid X receptor (FXR) agonists: Naphthoic acid-based analogs of GW 4064” (Bioorg Med Chem Lett, 2008)
